Assay results from ChEMBL document CHEMBL5608241, “Discovery of Novel Non-nucleoside DOT1LR231Q Inhibitors with Improved Pharmacokinetic Properties and Anti-lung Cancer Efficacy” (J Med Chem, 2024).
The source made the active and inactive calls. No cut-off for these calls is given here.

Assays:
NCI-H460 [1] = assay: Inhibition of sphere formation in human NCI-H460 cells exogenously expressing wildtype DOT1L (unknown origin) (1 to 416 residues) assessed as reduction in self-renewal at 2.5 to 5 uM incubated for 7 to 14 days by inverted microscopic analysis; type: functional, cell-based; conditions: dose 2.5-5 µM, time 7-14 day
NCI-H460 [2] = assay: Antiproliferative activity against human NCI-H460 cells harboring wildtype DOT1L (unknown origin) (1 to 416 residues) assessed as inhibition of cell proliferation incubated for 72 hrs by CCK-8 assay; type: functional, cell-based; conditions: NCI-H460, 72 h
NCI-H460 [3] = assay: Effect on H3K9me2 expression in human NCI-H460 cells exogenously expressing wildtype DOT1L (unknown origin) (1 to 416 residues) at 5 uM by Western blot analysis; type: functional, cell-based
[4] = Cmax in male Sprague-Dawley rat at 20 mg/kg, iv measured after 24 hrs by LC-MS/MS analysis; type: ADME, organism-based; conditions: in vivo
[5] = Toxicity in male BALB/c-nu mouse model xenografted with human NCI-H460 cells harboring DOT1L R231Q mutant assessed as effect on liver viscera index at 20 mg/kg, ip administered five times a week for 3 weeks; type: organism-based; conditions: in vivo, 504 h
NCI-H460 [6] = assay: Antimigratory activity in human NCI-H460 cells exogenously expressing wildtype DOT1L (unknown origin) (1 to 416 residues) assessed as decrease in number of migrating cells at 2.5 to 5 uM measured after 72 hrs by wound healing assay; type: functional, cell-based; conditions: dose 2.5-5 µM
NCI-H460 [7] = assay: Effect on H3K27me3 expression in human NCI-H460 cells exogenously expressing DOT1L R231Q mutant (unknown origin) (1 to 416 residues) at 5 uM by Western blot analysis; type: functional, cell-based
NCI-H460 [8] = assay: Effect on H3K27me3 expression in human NCI-H460 cells exogenously expressing wildtype DOT1L (unknown origin) (1 to 416 residues) at 5 uM by Western blot analysis; type: functional, cell-based
[9] = Bioavailability in male Sprague-Dawley rat at 20 mg/kg, ip measured after 24 hrs by LC-MS/MS analysis; type: ADME, organism-based; conditions: in vivo
NCI-H460 [10] = assay: Antiinvasive activity against DOT1L knockdown human NCI-H460 cells assessed as decrease in number of invading cells at 2.5 to 5 uM incubated for 72 hrs by crystal violet staining based transwell invasion assay; type: functional, cell-based; conditions: dose 2.5-5 µM
NCI-H460 [11] = assay: Inhibition of sphere formation in human NCI-H460 cells exogenously expressing DOT1L R231Q mutant (unknown origin) (1 to 416 residues) assessed as reduction in self-renewal at 2.5 to 5 uM incubated for 7 to 14 days by inverted microscopic analysis; type: functional, cell-based; conditions: dose 2.5-5 µM, time 7-14 day
[12] = molecular target: Dual specificity mitogen-activated protein kinase kinase; MEK1/2 (Homo sapiens) (UniProt P36507+Q02750); assay: Inhibition of MEK phosphorylation in human NCI-H460 cells exogenously expressing wildtype DOT1L (unknown origin) (1 to 416 residues) at 5 uM by Western blot analysis; type: cell-based
[13] = AUC (0 to t) in male Sprague-Dawley rat at 20 mg/kg, ip measured after 24 hrs by LC-MS/MS analysis; type: ADME, organism-based; conditions: in vivo
NCI-H460 [14] = assay: Inhibition of MAPK/ERK signaling pathway in human NCI-H460 cells exogenously expressing wildtype DOT1L (unknown origin) (1 to 416 residues) assessed as decrease in RAF1 expression at 5 uM by Western blot analysis; type: cell-based
NCI-H460 [15] = assay: Antiinvasive activity against human NCI-H460 cells exogenously expressing DOT1L R231Q mutant (unknown origin) (1 to 416 residues) assessed as inhibition of cell invasion at 2.5 to 5 uM incubated for 72 hrs by crystal violet staining based transwell invasion assay; type: functional; conditions: dose 2.5-5 µM
NCI-H460 [16] = assay: Potency index, ratio of SGC0946 IC50 to test compound IC50 for antiproliferative activity against human NCI-H460 cells harboring DOT1L R231Q mutant (unknown origin) (1 to 416 residues) assessed as inhibition of cell proliferation incubated for 72 hrs by CCK-8 assay; type: functional
[17] = Tmax in male Sprague-Dawley rat at 20 mg/kg, ip measured after 24 hrs by LC-MS/MS analysis; type: ADME, organism-based; conditions: in vivo
[18] = AUC (0 to infinity) in male Sprague-Dawley rat at 20 mg/kg, iv measured after 24 hrs by LC-MS/MS analysis; type: ADME, organism-based; conditions: in vivo
[19] = Half-life in male Sprague-Dawley rat at 20 mg/kg, iv measured after 24 hrs by LC-MS/MS analysis; type: ADME, organism-based; conditions: in vivo
[20] = Toxicity in male BALB/c-nu mouse model xenografted with human NCI-H460 cells harboring DOT1L R231Q mutant assessed as effect on physical activity at 20 mg/kg, ip administered five times a week for 3 weeks; type: organism-based; conditions: in vivo, 504 h
[21] = MRT (0 to infinity) in male Sprague-Dawley rat at 20 mg/kg, iv measured after 24 hrs by LC-MS/MS analysis; type: ADME, organism-based; conditions: in vivo
NCI-H460 [22] = assay: Inhibition of ERK phosphorylation in human NCI-H460 cells exogenously expressing DOT1L R231Q mutant (unknown origin) (1 to 416 residues) at 5 uM by Western blot analysis; type: cell-based
NCI-H460 [23] = assay: Antiinvasive activity against human NCI-H460 cells exogenously expressing DOT1L R231Q mutant (unknown origin) (1 to 416 residues) assessed as decrease in number of invading cells at 5 uM incubated for 72 hrs by crystal violet staining based transwell invasion assay relative to control; type: functional; parameters: scale not given: the % may be the effect or the level left
NCI-H460 [24] = assay: Antitumor activity against human NCI-H460 cells harboring DOT1L R231Q mutant xenografted in male BALB/c-nu mouse model assessed as tumor growth inhibition at 20 mg/kg, ip administered five times a week for 3 weeks relative to control; type: functional; conditions: NCI-H460, 504 h, read-out: TGI
NCI-H460 [25] = assay: Inhibition of sphere formation in human NCI-H460 cells exogenously expressing DOT1L R231Q mutant (unknown origin) (1 to 416 residues) assessed as reduction in self-renewal at 5 uM incubated for 7 to 14 days by inverted microscopic analysis relative to control; type: functional; conditions: time 7-14 day
[26] = Toxicity in male BALB/c-nu mouse model xenografted with human NCI-H460 cells harboring DOT1L R231Q mutant assessed as effect on lung viscera index at 20 mg/kg, ip administered five times a week for 3 weeks; type: organism-based; conditions: in vivo, 504 h
[27] = Toxicity in male BALB/c-nu mouse model xenografted with human NCI-H460 cells harboring DOT1L R231Q mutant assessed as effect on heart viscera index at 20 mg/kg, ip administered five times a week for 3 weeks; type: organism-based; conditions: in vivo, 504 h
NCI-H460 [28] = assay: Effect on H3K36me2 expression in human NCI-H460 cells exogenously expressing DOT1L R231Q mutant (unknown origin) (1 to 416 residues) at 5 uM by Western blot analysis; type: functional, cell-based
NCI-H460 [29] = assay: Effect on H3K9me2 expression in human NCI-H460 cells exogenously expressing DOT1L R231Q mutant (unknown origin) (1 to 416 residues) at 5 uM by Western blot analysis; type: functional, cell-based
NCI-H460 [30] = assay: Antiinvasive activity against human NCI-H460 cells exogenously expressing wildtype DOT1L (unknown origin) (1 to 416 residues) assessed as decrease in number of invading cells at 5 uM incubated for 72 hrs by crystal violet staining based transwell invasion assay relative to control; type: functional; parameters: scale not given: the % may be the effect or the level left

Dual specificity mitogen-activated protein kinase kinase; MEK1/2 (Homo sapiens), sequence (P36507 whole entry, looked up, the tested form may be a part): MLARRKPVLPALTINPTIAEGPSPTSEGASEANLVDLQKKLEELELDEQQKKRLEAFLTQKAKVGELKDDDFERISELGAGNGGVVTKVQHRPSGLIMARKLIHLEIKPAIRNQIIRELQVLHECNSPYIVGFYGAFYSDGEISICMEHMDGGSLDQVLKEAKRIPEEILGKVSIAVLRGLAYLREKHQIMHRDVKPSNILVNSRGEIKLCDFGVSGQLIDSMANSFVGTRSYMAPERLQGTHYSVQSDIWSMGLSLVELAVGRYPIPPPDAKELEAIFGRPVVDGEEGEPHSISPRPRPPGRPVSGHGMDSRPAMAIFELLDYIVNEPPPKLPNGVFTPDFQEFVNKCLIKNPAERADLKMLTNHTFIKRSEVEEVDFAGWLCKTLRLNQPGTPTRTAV
Dual specificity mitogen-activated protein kinase kinase; MEK1/2 (Homo sapiens), sequence (Q02750 whole entry, looked up, the tested form may be a part): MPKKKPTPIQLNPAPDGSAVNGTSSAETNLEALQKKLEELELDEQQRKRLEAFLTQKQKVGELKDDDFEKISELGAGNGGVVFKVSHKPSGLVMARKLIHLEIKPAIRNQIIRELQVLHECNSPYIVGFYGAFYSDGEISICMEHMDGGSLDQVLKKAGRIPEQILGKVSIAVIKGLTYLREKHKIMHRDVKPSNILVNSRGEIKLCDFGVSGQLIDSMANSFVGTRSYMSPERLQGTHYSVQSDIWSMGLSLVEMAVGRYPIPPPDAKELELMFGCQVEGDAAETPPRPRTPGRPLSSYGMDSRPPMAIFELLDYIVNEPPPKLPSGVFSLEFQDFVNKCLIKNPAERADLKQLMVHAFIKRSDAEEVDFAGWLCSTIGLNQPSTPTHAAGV

- IC50 (NCI-H460 [2]): 20 µM
- Cmax [4]: 3000 ng/mL
- bioavailability [9]: 92.2%
- inhibition [12]: inactive
- AUC(0-t) at 24 h [13]: 5280 ng·h/mL
- Tmax [17]: 0.25 h
- AUC(0-inf) [18]: 6200 ng·h/mL
- half-life [19]: 3.9 h
- MRT inf [21]: 4.41 h
SMILES: CC(C)(C)c1ccc(NC(=O)NCCCN(CCCN2CCOCC2)CC2(O)CCN(c3nc(Cl)nc4sccc34)C2)cc1 (stereo not given)
- inhibition (NCI-H460 [1]): Active
- Activity (NCI-H460 [3]): inactive
- Activity [5]: Non-Toxic
- Activity (NCI-H460 [6]): Active
- Activity (NCI-H460 [7]): inactive
- Activity (NCI-H460 [8]): inactive
- Activity (NCI-H460 [10]): inactive
- inhibition (NCI-H460 [11]): Active
- inhibition (NCI-H460 [14]): inactive
- Activity (NCI-H460 [15]): Active
- Ratio IC50 (NCI-H460 [16]): 1.3
- Activity [20]: Non-Toxic
- inhibition (NCI-H460 [22]): Active
- Activity (NCI-H460 [23]): 77.7%
- inhibition in vivo at 20 mg/kg (NCI-H460 [24]): 60.6%
- inhibition at 5 µM (NCI-H460 [25]): 82%
- Activity [26]: Non-Toxic
- Activity [27]: Non-Toxic
- Activity (NCI-H460 [28]): inactive
- Activity (NCI-H460 [29]): inactive
- Activity (NCI-H460 [30]): 61.5%
